# Experimental data: US12540137B2, “N-1 branched alkyl ether substituted imidazo[4,5-c]quinoline compounds, compositions, and methods” (Solventum Intellectual Properties Company, priority 2018, dated 2026)
# Like-named read-outs stand apart in the source and are kept apart here.
# Tested on: Human peripheral blood mononuclear cells (PBMC)
# Assay: Cytokine induction in human cells (PBMC)
# Format: cell-based
# Settings: for minimal effective concentration / MEC to Induce Cytokine TNF-alpha: human PBMC, 21-24 hours culture, lowest concentration giving cytokine level at least 2× negative control
# Experimental: Whole blood was obtained from healthy human donors and collected by venipuncture into vacutainer tubes or syringes containing EDTA. Human peripheral blood mononuclear cells (PBMC) were purified from the whole blood by density gradient centrifugation. Histopaque 1077 (15 mL, Sigma, St. Louis, MO) was transferred to 6×50 mL sterile polypropylene conical tubes. The Histopaque was overlayed with 15-25 mL of blood diluted 1:2 in Hank's Balanced Salts Solution (HBSS) (Gibco, Life Technologies, Grand Island, NY). The tubes were then centrifuged at 1370 rpm for 30 minutes at 20° C., with no brake (400×g, GH 3.8A Rotor).
# The interface (buffy coat) containing the PBMC was collected and placed in a new sterile 50 ml conical polypropylene centrifuge tube. The PBMC were mixed with an equal volume of HBSS (about 20 mL from the interface and about 20 mL of HBSS), and then centrifuged at 1090 rpm, 10 minutes, 20° C., with brake (270×g, GH 3.8A Rotor). After completing centrifugation, the cells were resuspended in 2-3 mL ACK Red blood cell lysis buffer (ammonium chloride potassium solution, Gibco, Life Technologies) and incubated for 2-5 minutes at 20° C. Next, HBSS (40 mL) was added to the cells, and the sample was centrifuged at 270×g for 10 minutes at 20° C. The supernatant was decanted, and the cell pellet was resuspended in 5 mL AIM V Medium (Gibco, Life Technologies). Cell aggregates and debris were removed by filtering the cell solution through a BD Falcon 70 micron nylon cell strainer (BD Biosciences, San Jose, CA).
# The number of viable cells was determined by counting with a Miltenyi FACS instrument (Miltenyi Biotec Inc., San Diego, CA) or by using a hemocytometer. For determining cell viability with a hemocytometer, the cells were diluted 1/10 in 0.4% trypan blue and HBSS (specifically, 50 microliter of trypan blue+40 microliter of HBSS+10 microliter of cell solution were added to a microfuge tube and mixed). Ten microliters of the diluted cells were then applied to the hemocytometer, and the number of viable PBMC were determined by microscopy.
# The PBMC sample was then resuspended in 96-well plates at a concentration of 8×10^5 cells/well in 0.1 mL of AIM-V medium. Each compound was solubilized in dimethyl sulfoxide (DMSO) to create a 3 mM stock solution. The stock solution was then further diluted with AIM-V medium to prepare the serial dilutions. The diluted compound (100 microliters) was then transferred to the PBMCs to produce testing sets with final compound concentrations of either 30, 10, 3.3, 1.1, 0.37, 0.12, 0.04, 0.01 micromolar (testing set A); 30, 10, 3.3, 1.1, 0.37, 0.12, 0.04 micromolar (testing set B); 100, 33.3, 11.1, 3.7, 1.2, 0.4 micromolar (testing set C); or 3.0, 1.0, 0.33, 0.11, 0.037, 0.012, 0.004, 0.0014 micromolar (testing set D). The plates also had both positive and negative controls. The negative control wells contained only AIM-V medium with no example compound. The positive control wells contained a control set of imiquimod serially diluted to concentrations of either 30, 10, 3.3, 1.1, 0.37, 0.12, 0.04, 0.01 micromolar (control set A); 30, 10, 3.3, 1.1, 0.37, 0.12, 0.04 micromolar (control set B); 100, 33.3, 11.1, 3.7, 1.2, 0.4 micromolar (control set C); or 3.0, 1.0, 0.33, 0.11, 0.037, 0.012, 0.004, 0.0014 micromolar (control set D). The concentrations used in the control set were selected to match the concentrations used in the testing set. The plates were then cultured at 37° C./5% CO2 for 21-24 hours. Cell-free supernatants were harvested by centrifuging the 96-well plates at 2100 rpm, 23° C. for 10 minutes. Approximately 160 microliters of the supernatant were then stored in a NUNC 96-well plate, covered with the compression cap and stored at −80° C. until the cytokine analysis was done.
# IFN-alpha cytokine levels (picograms/mL) were measured by ELISA (human IFN-alpha, pan specific, Mabtech, Cincinnati, OH). […]
# [1] = ELISA, read-out: MEC to Induce Cytokine IFN-alpha
# [2] = multiplex bead assay, read-out: MEC to Induce Cytokine IFN-gamma
smiles,measurement,setting,value
"CCOC[C@H](C(C)C)n1cnc2c(N)nc3ccccc3c21 [Example 1, 1-[(1S)-1-(ethoxymethyl)-2-methyl-propyl]imidazo[4,5-c]quinolin-4-amine]",minimal effective concentration,[1],≤ 0.04 µM
same,MEC to Induce Cytokine TNF-alpha,multiplex bead assay,≤0.04 µM
same,minimal effective concentration,[2],≤ 0.04 µM
"CCOC[C@@H](n1cnc2c(N)nc3ccccc3c21)C(O)(CC)CC [Example 12, (2R)-2-(4-aminoimidazo[4,5-c]quinolin-1-yl)-1-ethoxy-3-ethyl-pentan-3-ol]",minimal effective concentration,[1],0.04 µM
same,minimal effective concentration,[2],0.12 µM
"CCOC[C@H](n1cnc2c(N)nc3ccccc3c21)C(C)(C)O [Example 6, (3S)-3-(4-aminoimidazo[4,5-c]quinolin-1-yl)-4-ethoxy-2-methyl-butan-2-ol]",minimal effective concentration,[1],> 100 µM
same,MEC to Induce Cytokine TNF-alpha,multiplex bead assay,>100 µM
same,minimal effective concentration,[2],> 100 µM
same,activity toward cytokine production,statement in the description,inactive toward cytokine production
"CCOC[C@H](C(C)C)n1c(C)nc2c(N)nc3ccccc3c21 [Example 3, 1-[(1S)-1-(ethoxymethyl)-2-methyl-propyl]-2-methyl-imidazo[4,5-c]quinolin-4-amine]",minimal effective concentration,[1],0.37 µM
same,MEC to Induce Cytokine TNF-alpha,multiplex bead assay,0.37 µM
same,minimal effective concentration,[2],1.1 µM
"CCOC[C@H](n1cnc2c(N)nc3ccccc3c21)C(C)(C)C [Example 10, 1-[(1R)-1-(ethoxymethyl)-2,2-dimethyl-propyl]imidazo[4,5-c]quinolin-4-amine]",minimal effective concentration,[1],3 µM
same,MEC to Induce Cytokine TNF-alpha,multiplex bead assay,3.0 µM
same,minimal effective concentration,[2],3 µM
"COC[C@@H](n1cnc2c(N)nc3ccccc3c21)C(C)(C)C [Example 11, 1-[(1S)-1-(methoxymethyl)-2,2-dimethyl-propyl]imidazo[4,5-c]quinolin-4-amine]",minimal effective concentration,[1],≤ 0.4 µM
same,MEC to Induce Cytokine TNF-alpha,multiplex bead assay,≤0.4 µM
same,minimal effective concentration,[2],≤ 0.4 µM
"CCOC[C@@H](C(C)C)n1c(C)nc2c(N)nc3ccccc3c21 [Example 4, 1-[(1R)-1-(ethoxymethyl)-2-methyl-propyl]-2-methyl-imidazo[4,5-c]quinolin-4-amine]",minimal effective concentration,[1],10 µM
same,MEC to Induce Cytokine TNF-alpha,multiplex bead assay,10 µM
same,minimal effective concentration,[2],> 30 µM
"CCOC[C@@H](C(C)C)n1cnc2c(N)nc3ccccc3c21 [Example 2, 1-[(1R)-1-(ethoxymethyl)-2-methyl-propyl]imidazo[4,5-c]quinolin-4-amine]",minimal effective concentration,[1],3.3 µM
same,MEC to Induce Cytokine TNF-alpha,multiplex bead assay,3.3 µM
same,minimal effective concentration,[2],> 30 µM
"CCOC[C@@H](n1cnc2c(N)nc3ccccc3c21)C(C)(C)O [Example 5, (3R)-3-(4-aminoimidazo[4,5-c]quinolin-1-yl)-4-ethoxy-2-methyl-butan-2-ol]",minimal effective concentration,[1],0.12 µM
same,MEC to Induce Cytokine TNF-alpha,multiplex bead assay,0.04 µM
same,minimal effective concentration,[2],0.12 µM
"CCOC[C@@H](n1c(C)nc2c(N)nc3ccccc3c21)C(C)(C)O [Example 7, (3R)-3-(4-amino-2-methyl-imidazo[4,5-c]quinolin-1-yl)-4-ethoxy-2-methyl-butan-2-ol]",minimal effective concentration,[1],0.12 µM
same,minimal effective concentration,[2],0.37 µM
"CCO[C@@H](C)[C@@H](n1cnc2c(N)nc3ccccc3c21)C(C)(C)O [Example 13, (3R,4S)-3-(4-aminoimidazo[4,5-c]quinolin-1-yl)-4-ethoxy-2-methyl-pentan-2-ol]",minimal effective concentration,[1],3.3 µM
same,MEC to Induce Cytokine TNF-alpha,multiplex bead assay,10 µM
same,minimal effective concentration,[2],10 µM
"CCOC[C@@H](n1c(CC)nc2c(N)nc3ccccc3c21)C(C)(C)O [Example 8, (3R)-3-(4-amino-2-ethyl-imidazo[4,5-c]quinolin-1-yl)-4-ethoxy-2-methyl-butan-2-ol]",minimal effective concentration,[1],10 µM
same,minimal effective concentration,[2],3.3 µM
"CCOC[C@@H](n1cnc2c(N)nc3ccccc3c21)C(C)(C)C [Example 9, 1-[(1S)-1-(ethoxymethyl)-2,2-dimethyl-propyl]imidazo[4,5-c]quinolin-4-amine]",minimal effective concentration,[1],0.004 µM
same,MEC to Induce Cytokine TNF-alpha,multiplex bead assay,0.004 µM
same,minimal effective concentration,[2],0.012 µM
